Source: patent publication US6815419B1, “Antiulcer agent” (Morinaga Milk Industry Co., Ltd., priority 1999, dated 2004)

How the values were obtained:
[1] = tested on: hydrochloric acid and ethanol induced lesions on the mucous membrane of the stomach; assay: Hydrochloric acid and ethanol induced ulcer in rats (method of Robert et al.), stomach examined after 1 hour; format: in vivo, Wistar rats; details: for Cumulative degree of lesions on mucous membrane: blank 60
Protocol: Male Wistar rats weighing 230 to 270 g, 11 weeks old, (purchased from Japan SLC CO., Ltd.) were randomly classified into five groups (each consisting of ten rats).
The experiment was carried out according to the method disclosed by Robert et al. (Gastroenterology, volume 77, pages 433 to 443, 1979). That is, rats were fasted for 24 hours and were orally administered with each test agent at a dose of 10 mg/kg of an active ingredient in body weight. Test agent 1 for a blank test was orally administered to the rats in an amount of 10 ml/kg body weight. After 30 minutes, hydrochloric acid and ethanol solution [hydrochloric acid and ethanol solution (M=mol/dm^3) prepared by mixing 500 mM of hydrogen chloride (HCl) solution and 75% ethanol solution at a volume ratio of […])] was orally administered to the rats at a dose of 5 ml/kg body weight.
After 1 hour, the rats were killed by ether inhalation, the stomach of each rat was taken out to the body surface, the pyloric part of the stomach was ligated, and then the stomach was removed. Then, 10 ml of 2% formalin solution was injected into the stomach from the cardiac part thereof, and the stomach was subsequently immersed in the formalin solution for 10 minutes for fixation. Then, the curvatura ventriculi major of the stomach fixed by formalin was cut to open, and the degree of ulcers was measured by the following method.
That is, the total area of injured portions on the mucous membrane of each rat was measured, and then the degree of lesions on the mucous membrane of each rat (score) was classified into six grades as shown in Table 1 in accordance with the total area of the injured portion.
This experiment was carried out in a manner identical to Example 1, except that α-lactalbumin included in the test agents as an active ingredient was respectively orally administered at a dose of 0 mg/kg body weight (blank test), 1 mg/kg body weight, 10 mg/kg body weight, or 100 mg/kg body weight.
This experiment was carried out in a manner identical to Example 1, except that α-lactalbumin included as an active ingredient in each test agent was respectively orally administered at a dose of 10 mg/kg body weight. The dose for the blank test was 0 mg/kg body weight.

CD (SD) rats = assay: Acute toxicity of single oral administration in rats; format: in vivo; details: for Number of deaths/Total number, Female: female rats; for Number of deaths/Total number, Male: male rats
Protocol: Male and Female CD (SD) rats, 6 weeks old, purchased from Japan SLC CO., Ltd.) were respectively and randomly classified into three groups (each consisting of five rats) to be used for this experiment.
Commercially available α-lactalbumin (manufactured by Sigma Co., Ltd.) was dissolved in water for injection (manufactured by Otsuka Pharmaceutical Co., Ltd.) to each of a concentration of 100 mg/ml and 200 mg/ml, which were respectively and orally administered in an amount of 1 ml per 100 g of body weight (at each dose of 1000 mg and 2000 mg per 1 kg of rat body weight) to each rat of each group by single oral instillation by means of a metal probe with a rounded tip, in order to examine the acute toxicity. As a blank test, only water for injection (manufactured by Otsuka Pharmaceutical Co., Ltd.) was administered in the same way to each rat of both groups of males and females.

alcohol-induced ulcers = assay: Test Method 1: alcohol-induced ulcers in rats, stomach examined after 7 hours; format: in vivo, Wistar rats; details: test group 1; sum of scores of ten rats; oral 10 mg/kg, 1 mg/ml; 7 hours after HCl/ethanol; blank 50
Protocol: (§1) Male Wistar rats weighing 230 to 270 g, 11 weeks old, (purchased from Japan SLC CO., Ltd.) were randomly classified into six groups (each consisting of ten rats).
(§2) As test agents (antiulcer agents including α-lactalbumin of the present invention as an active ingredient), commercially available α-lactalbumin (manufactured by Sigma Co., Ltd.) was dissolved in distilled water to a concentration of 1 mg/ml to be used. As a test agent for a blank test, distilled water was used.
This experiment was carried out according to the method disclosed by Robert et al. (Gastroenterology, volume 77, pages 433 to 443, 1979) in a manner similar to Example 1. That is, rats fasted for 24 hours were orally administered with each test agent at a dose of 10 mg/kg of an active ingredient in body weight (test group number 1). The test agent for a blank test was orally administered to rats in an amount of 10 ml/kg in body weight (test group number 2). […]
After 7 hours, the rats were killed by ether inhalation, the stomach of each rat was taken out to the body surface, the pyloric part of the stomach was ligated, and then the stomach was removed. […] Then, the curvatura ventriculi major of the stomach fixed by formalin was cut to open, and the degree of ulcers was measured in a manner identical to Example 1.

stress-induced ulcers = assay: Test Method 2: stress-induced ulcers in rats (restraint and water immersion, Takagi and Okabe); format: in vivo, Wistar rats; details: test group 3; sum of scores of ten rats; oral 10 mg/kg, 1 mg/ml; 7 hours restraint in water at 23° C.; blank 50
Protocol: as §1, §2
This experiment was carried out in a manner identical to Method 1 described above, except that ulcers were induced according to the method described by Takagi and Okabe (Japanese Journal of Pharmacology, volume 18, pages 9 to 18, 1968). That is, rats fasted for 24 hours were orally administered with each test agent including at a dose of 10 mg/kg of an active ingredient in body weight (test group number 3). The test agent for a blank test was orally administered to rats in an amount of 10 ml/kg body weight (test group number 4). After 30 minutes, each rat was held in a stainless steel restrictive cage, and was left in a water tank at 23° C., standing and submerging to the depth of the bottom of the breast xiphoid process of the rat.
After 7 hours, each rat was pulled up from the water tank, and the degree of ulcers was measured in a manner identical to Method 1 described above.

[2] = tested on: ulcers caused by indomethacin; assay: Test Method 3: ulcers caused by a nonsteroidal anti-inflammatory drug (indomethacin) in rats; format: in vivo, Wistar rats; details: test group 5; sum of scores of ten rats; oral 10 mg/kg, 1 mg/ml; 7 hours after indomethacin 30 mg/kg oral; blank 50
Protocol: as §1, §2
This experiment was carried out in a manner identical to Method 1 described above, except that ulcers were induced in accordance with the method of Okabe, et al. (Japanese Journal of Pharmacology, volume 29, pages 670 to 673, […]). That is, rats fasted for 24 hours were orally administered with the each test agent at a dose of 10 mg/kg of an active ingredient in body weight (test group number 5). The test agent for a blank test was orally administered to each rat in an amount of 10 ml/kg body weight (test group number 6). After 30 minutes, indomethacin at a dose of 30 mg/kg body weight, which is a representative nonsteroidal anti-inflammatory drug, was orally administered.
After 7 hours, the degree of ulcers was measured in a manner identical to Method 1 described above.

**Q.** With α-lactalbumin as the substance, how does the “Concentration of test agent that shows antiulcer effects” value ([1]; oral dose fixed at 10 mg/kg) read?
**A.** no less than 0.5 mg/ml

**Q.** And the “Concentration of test agent that shows significant antiulcer effects” value ([1]; oral dose fixed at 10 mg/kg)?
**A.** no less than 1 mg/ml

**Q.** What about the “Effective dose for oral administration” value ([1]; rats, oral, significant antiulcer effects) of the same substance?
**A.** no less than 10 mg per 1 kg of body weight

**Q.** What about the “Cumulative degree of lesions on mucous membrane” value (“Cumulative degree of lesions” for short) ([1]; sum of scores (0-6, Table 1) of ten rats, oral 10 mg/kg active ingredient, 1 mg/ml, 30 min before HCl/ethanol) of the same substance?
**A.** 7

**Q.** What about the “Cumulative degree of lesions” value ([1]; sum of scores of ten rats, concentration 0.25 mg/ml, oral dose 10 mg/kg) of the same substance?
**A.** 30

**Q.** And the “Cumulative degree of lesions” value ([1]; sum of scores of ten rats, concentration 0.5 mg/ml, oral dose 10 mg/kg)?
**A.** 13

**Q.** And the “Cumulative degree of lesions” value ([1]; sum of scores of ten rats, concentration 1 mg/ml, oral dose 10 mg/kg)?
**A.** 7

**Q.** What about the “Cumulative degree of lesions” value ([1]; sum of scores of ten rats, concentration 5 mg/ml, oral dose 10 mg/kg) of the same substance?
**A.** 5

**Q.** What about the “Cumulative degree of lesions” value ([1]; sum of scores of ten rats, concentration 10 mg/ml, oral dose 10 mg/kg) of the same substance?
**A.** 5

**Q.** What about the “Cumulative degree of lesions” value ([1]; sum of scores of ten rats, oral dose 1 mg/kg, 1 mg/ml) of the same substance?
**A.** 47

**Q.** What about the “Cumulative degree of lesions” value ([1]; sum of scores of ten rats, oral dose 10 mg/kg, 1 mg/ml) of the same substance?
**A.** 7

**Q.** What about the “Cumulative degree of lesions” value ([1]; sum of scores of ten rats, oral dose 100 mg/kg, 1 mg/ml) of the same substance?
**A.** 3

**Q.** And the “Number of deaths/Total number, Female” value (CD (SD) rats; single oral dose 1000 mg/kg)?
**A.** 0/5

**Q.** What about the “Number of deaths/Total number, Female” value (CD (SD) rats; single oral dose 2000 mg/kg) of the same substance?
**A.** 0/5

**Q.** What about the “Number of deaths/Total number, Male” value (CD (SD) rats; single oral dose 1000 mg/kg) of the same substance?
**A.** 0/5

**Q.** And the “Number of deaths/Total number, Male” value (CD (SD) rats; single oral dose 2000 mg/kg)?
**A.** 0/5

**Q.** And the LD50 (CD (SD) rats; rats, single oral administration)?
**A.** no less than 2000 mg/kg body weight

**Q.** What about the “Cumulative degree of lesions” value (alcohol-induced ulcers) of the same substance?
**A.** 6

**Q.** And the “Cumulative degree of lesions” value (stress-induced ulcers)?
**A.** 12

**Q.** What about the “Cumulative degree of lesions” value [2] of the same substance?
**A.** 23
